Source: US20070207454A1, “Novel method to identify targets for antibiotic development” (priority 2001, published 2007)

Key:
C1 lysin = C1 lysin (Streptococcus phage C1, UniProt Q7Y3F3); assay: Competition experiments with monosaccharides or cell wall carbohydrate extracts; assay type: cell-based, C1 bacteriophage; settings: 20 mM monosaccharide
Experimental: FIG. 7 is a bar graph illustrating lysin pretreated with […] Sugar (GlcNAc for A, L-Rhamnose for AV, or GalNAc for C), or extracted Group A carbohydrate (10 mg/ml). The black marker indicates buffer pretreatment; the gray marker indicates sugar pretreatment; and the white marker indicates Group A carbohydrate pretreatment.
Competition experiments. The three groups of cells were pretreated with monosaccharide or buffer containing 20 mM monosaccharide (GlcNAc for A, L-rhamnose for AV, or GalNAc for C), or extracted Group A carbohydrate (10 mg/ml) prior to exposure to the C1 lysin.

RSVF1 = settings: cited from earlier work
PlyG lysin = assay type: cell-based, γ phage of Bacillus anthracis; settings: for blocking of PlyG's killing ability: bacillus RSVF, competition assay

Chain of C1 lysin (Q7Y3F3 whole entry, looked up): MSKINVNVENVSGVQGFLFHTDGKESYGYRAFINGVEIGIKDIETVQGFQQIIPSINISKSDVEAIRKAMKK

## C[C@H](O)[C@H](O)[C@@H](O)[C@@H](O)C=O [L-Rhamnose]
C1 lysin; AV cells
  effect of competitor on lysin activity: no decrease

## CO[C@@H]1[C@@H](OC(N)=O)[C@@H](O)[C@H](Oc2ccc3c(O)c(NC(=O)c4ccc(O)c(CC=C(C)C)c4)c(=O)oc3c2C)OC1(C)C [novobiocin]
RSVF1
  increase in resistance after EMS mutagenesis: 1,000 fold

## CC(=O)N[C@@H]1C(O)O[C@H](CO)[C@@H](O)[C@@H]1O (some centres unmarked) [N-acetylmannosamine]
PlyG lysin
  blocking of PlyG's killing ability: Neither galactose nor N-acetylmannosamine blocked

## CC(=O)N[C@H]1C(O)O[C@H](CO)[C@@H](O)[C@@H]1O (some centres unmarked) [N-acetylglucosamine]
C1 lysin; group A cells
  effect of competitor on lysin activity: no decrease
PlyG lysin; exponential phase RSVF1, 15 min at 37° C., CFU ml^-1, FIG. 10
  concentration that could block the lethal action of PlyG: ≤ 0.5 mM

## [H]/N=C(/N)N[C@H]1[C@H](O)[C@@H](O)[C@H](O[C@@H]2O[C@@H](C)[C@](O)(C=O)[C@H]2O[C@@H]2O[C@@H](CO)[C@H](O)[C@@H](O)[C@@H]2NC)[C@@H](N/C(N)=N\[H])[C@@H]1O [streptomycin]
RSVF1
  increase in resistance after EMS mutagenesis: 10,000 fold

## O=C[C@H](O)[C@@H](O)[C@@H](O)[C@H](O)CO [galactose]
PlyG lysin
  blocking of PlyG's killing ability: Neither galactose nor N-acetylmannosamine blocked

## CC(=O)N[C@H]1C(O)O[C@H](CO)[C@H](O)[C@@H]1O (some centres unmarked) [GalNAc, N-acetyl-galactosamine]
C1 lysin; group C cells
  effect of competitor on lysin activity: no decrease
